In data set [1] the test system is chemokines (CCL20, CCL2 and CX3CL1). Nature of the data set: Chemokine expression in large intestine tissues of DSS chronic colitis mice (Real-Time PCR). Conditions: oral 100 mg/kg daily for 10 days, sulfasalazine 500 mg/kg as comparison. It is filed as in vivo. The procedure: Meanwhile, as shown in FIGS. 11B-11D, mice suffering from chronic colitis induced by DSS were orally administered sulfasalazine in an amount of 500 mg/kg and compound 1.1 (SEQ ID NO: 2) in an amount of 100 mg/kg daily for 10 days. After 10 days of administration, large intestine tissues were obtained from the mice, and expression of chemokines (CCL20, CCL2 and CX3CL1) in the tissues was measured using real-time polymerase chain reaction (Real-Time PCR) as described above.

Data set [2] relates to DSS-induced chronic colitis. The data set is described as follows: Histological analyses of colon villi and mucous membranes in DSS-induced chronic colitis model. The data set is classed as in vivo, mice. The note with it: 100 mpk.
A further data set concerns HRMEC cells. Nature of the data set: VEGF-induced tube formation in HRMEC cells. The data set is classed as cell-based. Conditions: HRMEC on Matrigel; 20 ng/ml VEGF 4 hours; 50 nM. The method, then:
To evaluate the effect of compound 1.1 (SEQ ID NO: 2) on tube formation during angiogenesis, HRMEC cells ([…]) were cultured on Matrigel coated micro slides and treated with 20 ng/ml of VEGF for 4 hours to induce the tube formation. Simultaneously, for reference group, the cells were treated with DMSO, and for experimental group, the cells were treated with 50 nM of compound 1.1 (SEQ ID NO: 2) and 1 uM of calcein-AM. The cells were observed using fluorescence microscope.

A further data set relates to septicemia (CLP model). The data set is described as follows: Cecal ligation and puncture (CLP) septicemia model. The data set is classed as in vivo. Conditions: CLP mice; hypodermic 1 mg/kg, 2 hours after CLP, 12 hour intervals, three times. The source says:
To confirm the effects of compound 1.1 (SEQ ID NO: 2) on septicemia, 10 mice in each group (7-week old, male) were anesthetized, and thereafter, the appendicies were exposed by incision of abdomen. The lower portion of ileocecal valve of the exposed appendix was tied and a single hole was made by using a 22 gage syringe needle. The treated appendix was reinserted into the abdominal cavity, and grafted using thread to obtain a septicemia-induced mice model (cecal ligation and pucture model, CLP model). Experimental methods were described in EMBO Mol Med. (2015) Mar. 12; 7(5):577-92, which is incorporated herein by reference.
Compound 1.1 (SEQ ID NO: 2) was hypodermically injected to the treated mice at dose of 1 mg/kg, after 2 hours from the CLP procedure, with 12 hour intervals, three times. As reference control, smaducin-6 was hypodermically injected at dose of 12 mg/kg as same method used for compound 1.1 (SEQ ID NO: 2). Survival rates of the mice from each group were measured (FIG. 29). Sham comparative group was not treated after incision of abdomen and anastomosis, CLP+PBS comparative group was treated with phosphate buffered saline (PBS) instead of drug compound after cecal ligation and puncture model was prepared. […]

For data set [3], the system named is experimental autoimmune encephalomyelitis. The data set is described as follows: MOG-induced experimental autoimmune encephalomyelitis model. The data set is classed as in vivo. The note with it: EAE mice. The method, then:
To confirm the effect of compound 1.1 (SEQ ID NO: 2) on multiple sclerosis, mice (10 weeks old, female) were sensitized with MOG35-55/[…] and PTX and an experimental autoimmune encephalomyelitis mouse model was obtained. Experimental methods were described in Oncotarget, Vol. 7 (2016), No. 13, 15382-15393, which is incorporated herein by reference.
As reference group, 10000 unit of Interferon-beta was hypodermically injected for 25 days, once every other day. Clinical score were measured and presented.

Data set [4] relates to MAPK signaling pathway proteins (ERK1/2, JNK, p38). Nature of the data set: Western blot of MAPK signaling pathway protein phosphorylation in LPS-treated RAW 246.7 cells. The data set is classed as cell-based. The note with it: 100 nM for 30 minutes. The method, then:
RAW 246.7 macrophage cells were pretreated with compound 1.1 (SEQ ID NO: 2), compound 1.2 and reference compound 1 (SEQ ID NO: 16) at a concentration of 100 nM for 30 minutes and then further treated with LPS for 0 hour, 0.5 hour, 1 hour and 2 hours. […] Changes of the concentration upon phosphorylation of each protein were measured by immunoblotting using anti-phosphorylation antibodies.
Specifically, RAW 246.7 macrophage cells were pretreated with DMSO, compound 1.1 (SEQ ID NO: 2) (100 nM), IRAK1/4 inhibitor (25 μM), and smaducin-6 (100 nM) for 30 minutes, and then further treated with LPS (100 ng/ml) for two hours.

In another data set the test system is SBE (TFG-β1 signaling). The data set is described as follows: SBE-Luc reporter assay in Raw 264.7 cells treated with TFG-β1. It is filed as cell-based. The note with it: 5 ng/mL TFG-β1 two hours. The method, then: Specifically, 5×NF-κB-Luc reporter plasmid, SBE-Luc reporter plasmid, and BRE-Luc reporter plasmid were individually transfected into Raw 264.7 macrophage cells. After 24 hours, the cells transfected with the NF-κB-Luc reporter plasmid were treated with 100 ng/mL of LPS, the cells transfected with the SBE-Luc reporter plasmid were treated with 5 ng/mL of TFG-β1, and the cells transfected with the BRE-Luc reporter plasmid were treated with 100 ng/mL of BMP6 for two hours.

“Also recorded” adds a separate entry of the source. Peptide text beside a SMILES is read from it.

As for `CCCCCCCCCCCCCCCC(=O)N1CCC[C@H]1C(=O)N1CCC[C@H]1C(=O)NCC(=O)N[C@@H](Cc1ccc(O)cc1)C(=O)O` [compound 1.1, (S)-3-(4-hydroxyphenyl)-2-(2-((S)-1-((S)-1-palmitoylpyrrolidine-2-carbonyl)pyrrolidine-2-carboxamido)acetamido)propanoic acid] (HELM PEPTIDE1{[CCCCCCCCCCCCCCCC(=O)[*:2]].P.P.G.Y}$$$$V2.0), the “expression of chemokines (CCL20, CCL2 and CX3CL1) in large intestine tissues” value in data set [1] is “effective chemokine blockers”. Moreover, the “histological damages of large intestinal tissues” value in data set [2] (DSS-induced chronic colitis model) is recorded as “alleviated”. Besides, in data set [2] (in comparison to non-treated group and sulfasalazine 500 mpk), the “recovery of the mucous membranes (Alcian blue)” value is on record as “greater recovery of the mucous membranes”. In the data set on HRMEC cells, the tube formation result is on record as “suppressed tube formation”. Further, the survival rate with septicemia (CLP model) worked out at 60%. Further, the “changes in body weights” value in data set [3] (compared to the EAE disease model group) is given as “did not have reduced weight”. Besides, in data set [3] (hypodermic 1 mg/kg and 40 mg/kg every other day for 25 days, vs interferon-beta 10000 unit), the “clinical score / treatment effect” value is “effective in the treatment for multiple sclerosis; also recorded: the same or greater treatment effect and safety”. The “phosphorylation of the MAPK signaling pathway proteins (ERK1/2, JNK, p38)” value in data set [4] (LPS 0, 0.5, 1 and 2 hours) is “did not inhibit phosphorylation”. The “MAPK signaling pathway / phosphorylation of ERK, JNK, p38” value in data set [4] (LPS 100 ng/ml two hours) is listed as “neither suppressed MAPK signaling pathway nor inhibited phosphorylation of the proteins”. In addition, the “activation of SBE induced by TFG-β1 treatment” value in the data set with SBE (TFG-β1 signaling) is reported as “not inhibited”.

The record behind these values is patent US11365215B2, “Method for preventing, improving, or treating inflammatory bowel disease” (Research & Business Foundation Sungkyunkwan University, priority 2015, dated 2022).
